Measurements from ChEMBL document CHEMBL3393036, “Tetra-substituted pyridinylimidazoles as dual inhibitors of p38α mitogen-activated protein kinase and c-Jun N-terminal kinase 3 for potential treatment of neurodegenerative diseases” (J Med Chem, 2015).
pIC50: −log10 of the molar value.

Experiments:
[1] = target: Vascular endothelial growth factor receptor 2 (Homo sapiens) (UniProt P35968); test: Inhibition of KDR (unknown origin) at 5.5 uM by Caliper Mobility Shift Assay
[2] = target: T1, Interleukin-1 receptor-associated kinase 4 (Homo sapiens) (UniProt Q9NWZ3); test: Inhibition of IRAK4 (unknown origin) at 5.5 uM by Caliper Mobility Shift Assay
T1 sequence (whole entry): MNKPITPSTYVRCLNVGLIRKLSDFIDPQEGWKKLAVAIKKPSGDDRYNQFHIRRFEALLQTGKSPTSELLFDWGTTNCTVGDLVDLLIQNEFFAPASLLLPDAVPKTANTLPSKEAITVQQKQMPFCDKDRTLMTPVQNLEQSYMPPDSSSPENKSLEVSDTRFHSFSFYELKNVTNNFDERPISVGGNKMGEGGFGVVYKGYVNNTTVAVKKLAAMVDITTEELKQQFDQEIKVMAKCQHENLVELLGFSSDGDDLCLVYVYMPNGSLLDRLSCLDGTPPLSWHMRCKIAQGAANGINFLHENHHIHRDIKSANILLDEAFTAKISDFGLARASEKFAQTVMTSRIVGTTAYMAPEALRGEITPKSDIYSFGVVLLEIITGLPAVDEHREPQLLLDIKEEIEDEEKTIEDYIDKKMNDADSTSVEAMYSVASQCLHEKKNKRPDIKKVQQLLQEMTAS

[3] = target: Tyrosine-protein kinase ABL1 (Homo sapiens) (UniProt P00519); test: Inhibition of ABL1 (unknown origin) at 5.5 uM by Caliper Mobility Shift Assay
[4] = target: Fibroblast growth factor receptor 4 (Homo sapiens) (UniProt P22455); test: Inhibition of FGFR4 (unknown origin) at 5.5 uM by Caliper Mobility Shift Assay
[5] = target: Platelet-derived growth factor receptor alpha (Homo sapiens) (UniProt P16234); test: Inhibition of PDGFRa (unknown origin) at 5.5 uM by Caliper Mobility Shift Assay
[6] = target: T2, TGF-beta-activated kinase 1 and MAP3K7-binding protein 1 (Homo sapiens) (UniProt Q15750); test: Inhibition of MAP3K7-TAB1 (unknown origin) at 5.5 uM by Caliper Mobility Shift Assay
T2 sequence (whole entry): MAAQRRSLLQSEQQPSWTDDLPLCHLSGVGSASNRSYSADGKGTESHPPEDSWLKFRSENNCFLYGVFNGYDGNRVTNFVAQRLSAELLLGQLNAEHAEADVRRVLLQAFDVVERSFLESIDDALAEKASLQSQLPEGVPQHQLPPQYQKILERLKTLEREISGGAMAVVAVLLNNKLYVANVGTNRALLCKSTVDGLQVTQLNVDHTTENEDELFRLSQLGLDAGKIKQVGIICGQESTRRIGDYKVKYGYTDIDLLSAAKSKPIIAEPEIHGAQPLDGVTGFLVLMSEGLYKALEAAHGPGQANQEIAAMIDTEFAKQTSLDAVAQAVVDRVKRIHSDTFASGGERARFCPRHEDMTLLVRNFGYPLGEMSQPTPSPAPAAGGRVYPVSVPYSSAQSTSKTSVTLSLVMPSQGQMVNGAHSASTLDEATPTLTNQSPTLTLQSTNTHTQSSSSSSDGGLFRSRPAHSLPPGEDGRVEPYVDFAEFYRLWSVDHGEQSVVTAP

[7] = target: Tyrosine-protein kinase JAK2 (Homo sapiens) (UniProt O60674); test: Inhibition of JAK2 (unknown origin) at 5.5 uM by Caliper Mobility Shift Assay
Tyrosine-protein kinase JAK2 (Homo sapiens), sequence (O60674 whole entry): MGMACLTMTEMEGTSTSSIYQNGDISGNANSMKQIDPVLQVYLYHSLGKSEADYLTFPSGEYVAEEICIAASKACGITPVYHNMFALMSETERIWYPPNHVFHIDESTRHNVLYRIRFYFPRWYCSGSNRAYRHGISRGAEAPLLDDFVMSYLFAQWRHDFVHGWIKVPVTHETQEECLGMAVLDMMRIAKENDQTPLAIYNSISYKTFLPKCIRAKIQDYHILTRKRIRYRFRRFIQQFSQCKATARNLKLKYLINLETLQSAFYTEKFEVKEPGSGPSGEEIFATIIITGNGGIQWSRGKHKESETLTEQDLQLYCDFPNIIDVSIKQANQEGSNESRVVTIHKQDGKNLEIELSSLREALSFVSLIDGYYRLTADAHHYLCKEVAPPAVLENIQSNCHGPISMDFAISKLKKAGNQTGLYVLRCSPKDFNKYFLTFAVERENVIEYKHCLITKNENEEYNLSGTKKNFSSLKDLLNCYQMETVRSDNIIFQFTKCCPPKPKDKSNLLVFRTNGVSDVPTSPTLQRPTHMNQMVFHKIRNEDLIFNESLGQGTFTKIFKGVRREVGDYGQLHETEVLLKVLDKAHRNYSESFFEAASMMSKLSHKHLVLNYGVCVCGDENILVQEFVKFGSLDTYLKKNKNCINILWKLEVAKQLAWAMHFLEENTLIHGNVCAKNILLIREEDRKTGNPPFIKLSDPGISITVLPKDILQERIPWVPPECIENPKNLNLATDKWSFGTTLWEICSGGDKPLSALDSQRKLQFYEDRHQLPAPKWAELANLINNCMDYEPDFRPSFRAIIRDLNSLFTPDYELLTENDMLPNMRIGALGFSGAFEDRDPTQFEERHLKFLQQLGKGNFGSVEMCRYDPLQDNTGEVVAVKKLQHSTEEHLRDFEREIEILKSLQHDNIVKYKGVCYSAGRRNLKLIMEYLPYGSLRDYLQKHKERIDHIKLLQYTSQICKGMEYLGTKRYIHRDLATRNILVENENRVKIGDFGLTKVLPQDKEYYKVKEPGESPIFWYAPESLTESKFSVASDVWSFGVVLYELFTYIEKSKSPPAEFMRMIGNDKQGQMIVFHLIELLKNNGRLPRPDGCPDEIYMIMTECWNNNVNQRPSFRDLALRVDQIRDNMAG

[8] = target: MAP kinase-activated protein kinase 2 (Homo sapiens) (UniProt P49137); test: Inhibition of MK2 (unknown origin) at 5.5 uM by Caliper Mobility Shift Assay
[9] = target: Receptor-type tyrosine-protein kinase FLT3 (Homo sapiens) (UniProt P36888); test: Inhibition of FLT3 (unknown origin) at 5.5 uM by Caliper Mobility Shift Assay
[10] = target: Tyrosine-protein kinase Lck (Homo sapiens) (UniProt P06239); test: Inhibition of LCK (unknown origin) at 5.5 uM by Caliper Mobility Shift Assay
[11] = target: Epidermal growth factor receptor (Homo sapiens) (UniProt P00533); test: Inhibition of EGFR (HER1) (unknown origin) at 5.5 uM by Caliper Mobility Shift Assay
[12] = target: Receptor tyrosine-protein kinase erbB-4 (Homo sapiens) (UniProt Q15303); test: Inhibition of ERBB4 (HER4) (unknown origin) at 5.5 uM by Caliper Mobility Shift Assay
Receptor tyrosine-protein kinase erbB-4 (Homo sapiens), sequence (Q15303 whole entry): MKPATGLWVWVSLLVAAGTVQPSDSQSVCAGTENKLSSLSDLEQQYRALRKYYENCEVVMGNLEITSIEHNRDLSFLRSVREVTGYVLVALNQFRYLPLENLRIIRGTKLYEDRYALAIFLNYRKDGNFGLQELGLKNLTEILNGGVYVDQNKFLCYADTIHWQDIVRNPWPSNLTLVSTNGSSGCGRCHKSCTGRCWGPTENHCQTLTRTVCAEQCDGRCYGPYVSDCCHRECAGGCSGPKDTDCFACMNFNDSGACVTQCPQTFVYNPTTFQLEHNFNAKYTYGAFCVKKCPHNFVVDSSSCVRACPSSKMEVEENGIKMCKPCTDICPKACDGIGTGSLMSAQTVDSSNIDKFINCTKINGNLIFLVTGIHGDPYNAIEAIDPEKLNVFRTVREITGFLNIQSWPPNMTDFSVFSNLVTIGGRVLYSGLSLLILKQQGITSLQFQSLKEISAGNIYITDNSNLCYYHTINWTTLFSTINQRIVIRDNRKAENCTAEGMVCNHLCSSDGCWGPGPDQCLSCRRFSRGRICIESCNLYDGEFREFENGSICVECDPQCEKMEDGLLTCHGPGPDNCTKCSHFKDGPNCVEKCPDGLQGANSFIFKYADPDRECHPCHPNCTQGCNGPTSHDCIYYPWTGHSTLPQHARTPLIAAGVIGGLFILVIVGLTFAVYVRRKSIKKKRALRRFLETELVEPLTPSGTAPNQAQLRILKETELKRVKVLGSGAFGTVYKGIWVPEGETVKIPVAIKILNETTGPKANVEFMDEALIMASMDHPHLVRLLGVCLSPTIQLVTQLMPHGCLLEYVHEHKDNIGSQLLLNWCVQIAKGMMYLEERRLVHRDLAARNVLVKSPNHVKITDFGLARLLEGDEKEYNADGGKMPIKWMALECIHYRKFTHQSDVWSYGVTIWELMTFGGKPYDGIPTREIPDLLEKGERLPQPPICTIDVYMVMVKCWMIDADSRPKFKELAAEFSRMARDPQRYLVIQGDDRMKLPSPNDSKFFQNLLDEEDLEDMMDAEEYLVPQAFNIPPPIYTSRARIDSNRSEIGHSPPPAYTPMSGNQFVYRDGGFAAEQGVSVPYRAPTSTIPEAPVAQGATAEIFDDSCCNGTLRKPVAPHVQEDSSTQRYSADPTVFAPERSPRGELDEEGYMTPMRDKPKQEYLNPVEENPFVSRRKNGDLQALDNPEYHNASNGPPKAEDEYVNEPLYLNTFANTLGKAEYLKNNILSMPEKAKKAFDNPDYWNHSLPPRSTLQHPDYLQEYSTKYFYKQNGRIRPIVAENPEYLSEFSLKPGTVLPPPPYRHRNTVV

[13] = target: Mitogen-activated protein kinase 8 (Homo sapiens) (UniProt P45983); test: Inhibition of JNK1 (unknown origin) at 5.5 uM by Caliper Mobility Shift Assay
[14] = target: Mitogen-activated protein kinase 1 (Homo sapiens) (UniProt P28482); test: Inhibition of MAPK1 (ERK2) (unknown origin) at 5.5 uM by Caliper Mobility Shift Assay
Mitogen-activated protein kinase 1 (Homo sapiens), sequence (P28482 whole entry): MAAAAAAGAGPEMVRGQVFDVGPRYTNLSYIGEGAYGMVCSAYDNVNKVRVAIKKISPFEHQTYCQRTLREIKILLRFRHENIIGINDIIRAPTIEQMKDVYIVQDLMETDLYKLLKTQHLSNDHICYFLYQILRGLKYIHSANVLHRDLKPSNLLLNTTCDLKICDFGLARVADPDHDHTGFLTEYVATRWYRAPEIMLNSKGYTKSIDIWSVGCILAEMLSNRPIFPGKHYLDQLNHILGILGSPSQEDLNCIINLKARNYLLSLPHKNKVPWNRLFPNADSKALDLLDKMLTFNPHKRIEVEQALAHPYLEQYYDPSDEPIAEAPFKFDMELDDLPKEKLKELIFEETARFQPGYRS

[15] = target: RAC-alpha serine/threonine-protein kinase (Homo sapiens) (UniProt P31749); test: Inhibition of AKT1 (PKBa) (unknown origin) at 5.5 uM by Caliper Mobility Shift Assay
[16] = target: Serine/threonine-protein kinase PAK 2 (Homo sapiens) (UniProt Q13177); test: Inhibition of PAK2 (unknown origin) at 5.5 uM by Caliper Mobility Shift Assay
Serine/threonine-protein kinase PAK 2 (Homo sapiens), sequence (Q13177 whole entry): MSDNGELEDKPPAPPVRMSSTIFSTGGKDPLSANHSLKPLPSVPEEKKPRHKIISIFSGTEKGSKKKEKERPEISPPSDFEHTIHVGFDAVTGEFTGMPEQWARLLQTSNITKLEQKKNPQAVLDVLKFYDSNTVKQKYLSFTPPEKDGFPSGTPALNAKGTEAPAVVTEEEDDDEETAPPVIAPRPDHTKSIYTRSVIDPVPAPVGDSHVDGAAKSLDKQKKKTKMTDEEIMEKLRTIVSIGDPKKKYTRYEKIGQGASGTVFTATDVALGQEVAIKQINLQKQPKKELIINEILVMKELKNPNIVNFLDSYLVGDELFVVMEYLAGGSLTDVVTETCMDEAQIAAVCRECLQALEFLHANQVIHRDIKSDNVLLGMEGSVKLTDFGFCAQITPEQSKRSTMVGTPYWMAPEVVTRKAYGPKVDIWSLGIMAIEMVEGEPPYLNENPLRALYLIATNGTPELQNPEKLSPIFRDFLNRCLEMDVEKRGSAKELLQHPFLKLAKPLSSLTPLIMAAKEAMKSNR

[17] = target: T3, Mitogen-activated protein kinase 10 (Homo sapiens, UniProt P53779); test: Inhibition of MAPK10 (JNK3) (unknown origin) at 5.5 uM by Caliper Mobility Shift Assay
T3 sequence (P53779 whole entry): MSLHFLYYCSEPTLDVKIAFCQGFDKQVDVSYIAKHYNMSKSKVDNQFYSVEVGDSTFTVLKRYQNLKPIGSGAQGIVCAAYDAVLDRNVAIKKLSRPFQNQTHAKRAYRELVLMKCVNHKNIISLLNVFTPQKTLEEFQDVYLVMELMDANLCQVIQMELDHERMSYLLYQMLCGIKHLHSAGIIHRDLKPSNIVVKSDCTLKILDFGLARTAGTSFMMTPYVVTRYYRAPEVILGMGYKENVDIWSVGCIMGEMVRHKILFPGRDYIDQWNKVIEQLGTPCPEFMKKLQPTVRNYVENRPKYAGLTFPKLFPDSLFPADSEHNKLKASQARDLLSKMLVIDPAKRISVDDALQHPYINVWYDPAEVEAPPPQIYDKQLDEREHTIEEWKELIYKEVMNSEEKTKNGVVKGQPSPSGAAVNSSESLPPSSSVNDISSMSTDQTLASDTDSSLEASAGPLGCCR

[18] = target: TRAF2 and NCK-interacting protein kinase (Homo sapiens) (UniProt Q9UKE5); test: Inhibition of TNIK (unknown origin) at 5.5 uM by Caliper Mobility Shift Assay
[19] = target: Tyrosine-protein kinase JAK1 (Homo sapiens) (UniProt P23458); test: Inhibition of JAK1 (unknown origin) at 5.5 uM by Caliper Mobility Shift Assay
[20] = target: Glycogen synthase kinase-3 beta (Homo sapiens) (UniProt P49841); test: Inhibition of GSK3beta (unknown origin) at 5.5 uM by Caliper Mobility Shift Assay
[21] = target: Tyrosine-protein kinase Lyn (Homo sapiens) (UniProt P07948); test: Inhibition of LYN (unknown origin) at 5.5 uM by Caliper Mobility Shift Assay
Tyrosine-protein kinase Lyn (Homo sapiens), sequence (P07948 2-512 limits assumed): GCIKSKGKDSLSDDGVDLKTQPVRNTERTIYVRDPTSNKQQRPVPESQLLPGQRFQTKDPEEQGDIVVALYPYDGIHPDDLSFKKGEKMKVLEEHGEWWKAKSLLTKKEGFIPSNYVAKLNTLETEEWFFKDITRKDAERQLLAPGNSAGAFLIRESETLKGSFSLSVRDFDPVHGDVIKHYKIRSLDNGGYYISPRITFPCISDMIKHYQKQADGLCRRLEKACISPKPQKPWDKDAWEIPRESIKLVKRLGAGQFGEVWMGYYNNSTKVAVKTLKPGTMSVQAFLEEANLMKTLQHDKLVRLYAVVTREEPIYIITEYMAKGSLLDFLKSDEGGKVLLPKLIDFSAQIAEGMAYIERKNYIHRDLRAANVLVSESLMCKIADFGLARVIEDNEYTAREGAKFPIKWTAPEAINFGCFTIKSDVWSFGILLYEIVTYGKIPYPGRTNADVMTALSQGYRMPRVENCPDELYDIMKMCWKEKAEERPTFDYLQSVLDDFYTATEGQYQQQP

[22] = target: Casein kinase I isoform gamma-3 (Homo sapiens) (UniProt Q9Y6M4); test: Inhibition of CSNK1G3 (CK1) (unknown origin) at 5.5 uM by Caliper Mobility Shift Assay
Casein kinase I isoform gamma-3 (Homo sapiens), sequence (Q9Y6M4 whole entry, looked up, canonical isoform): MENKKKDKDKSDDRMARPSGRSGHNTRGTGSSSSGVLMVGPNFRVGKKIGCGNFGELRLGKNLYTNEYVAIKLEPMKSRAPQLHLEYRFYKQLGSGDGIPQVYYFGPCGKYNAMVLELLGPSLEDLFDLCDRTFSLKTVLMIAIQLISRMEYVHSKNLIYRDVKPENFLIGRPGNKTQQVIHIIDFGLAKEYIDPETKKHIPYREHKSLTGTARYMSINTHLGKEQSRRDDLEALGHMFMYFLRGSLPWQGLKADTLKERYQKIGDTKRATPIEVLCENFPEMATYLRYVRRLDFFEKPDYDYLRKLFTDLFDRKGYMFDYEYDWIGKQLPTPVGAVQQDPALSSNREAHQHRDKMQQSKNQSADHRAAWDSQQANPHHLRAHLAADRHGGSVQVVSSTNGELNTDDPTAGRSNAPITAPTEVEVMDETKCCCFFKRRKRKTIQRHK

[23] = target: T3, Mitogen-activated protein kinase 10; test: Inhibition of JNK3 (unknown origin) assessed as phosphorylation of ATF-2 by ELISA
[24] = target: Rho-associated protein kinase 2 (Homo sapiens) (UniProt O75116); test: Inhibition of ROCK2 (unknown origin) at 5.5 uM by Caliper Mobility Shift Assay
[25] = target: Proto-oncogene tyrosine-protein kinase receptor Ret (Homo sapiens) (UniProt P07949); test: Inhibition of RET (unknown origin) at 5.5 uM by Caliper Mobility Shift Assay

Row | inhibition [1] | inhibition [2] | inhibition [3] | inhibition [4] | inhibition [5] | inhibition [6] | inhibition [7] | inhibition [8] | inhibition [9] | inhibition [10] | inhibition [11] | inhibition [12] | inhibition [13] | inhibition [14] | inhibition [15] | inhibition [16] | inhibition [17] | inhibition [18] | inhibition [19] | inhibition [20] | other results | SMILES
1 | < 50% | < 50% | < 50% | < 50% | < 50% | < 50% | < 50% | < 50% | < 50% | < 50% | < 50% | < 50% | < 50% | < 50% | < 50% | < 50% | < 50% | < 50% | < 50% | < 50% | inhibition [21]: < 50%; inhibition [22]: < 50%; pIC50 [23]: 7.46; inhibition [24]: < 50%; inhibition [25]: < 50% | CC(=O)Nc1cc(-c2c(-c3ccc(F)cc3)nc(S/C=C\C(=O)O)n2CC2CCCO2)ccn1 (racemic)
2 | < 50% | < 50% | < 50% | < 50% | < 50% | < 50% | < 50% | < 50% | < 50% | < 50% | < 50% | < 50% | < 50% | < 50% | < 50% | < 50% | < 50% | < 50% | < 50% | < 50% | inhibition [21]: < 50%; inhibition [22]: < 50%; pIC50 [23]: 7.09; inhibition [24]: < 50%; inhibition [25]: < 50% | CC(=O)Nc1cc(-c2c(-c3ccc(F)cc3)nc(S/C=C\C(=O)O)n2C2CC2)ccn1
3 | < 50% | < 50% | < 50% | < 50% | < 50% | < 50% | < 50% | < 50% | < 50% | < 50% | < 50% | < 50% | < 50% | < 50% | < 50% | < 50% | < 50% | < 50% | < 50% | < 50% | inhibition [21]: < 50%; inhibition [22]: < 50%; pIC50 [23]: 6.88; inhibition [24]: < 50%; inhibition [25]: < 50% | CC(=O)Nc1cc(-c2c(-c3ccc(F)cc3)nc(S/C=C\C(=O)O)n2C2CCCCC2)ccn1
4 | < 50% | < 50% | < 50% | < 50% | < 50% | < 50% | < 50% | < 50% | < 50% | < 50% | < 50% | < 50% | < 50% | < 50% | < 50% | < 50% | < 50% | < 50% | < 50% | < 50% | inhibition [21]: < 50%; inhibition [22]: < 50%; pIC50 [23]: 5.82; inhibition [24]: < 50%; inhibition [25]: < 50% | CC(=O)Nc1cc(-c2c(-c3ccc(F)cc3)nc(Sc3cccc(I)n3)n2C2CCCCC2)ccn1
5 | < 50% | < 50% | < 50% | < 50% | < 50% | < 50% | < 50% | < 50% | < 50% | < 50% | < 50% | < 50% | < 50% | < 50% | < 50% | < 50% | < 50% | < 50% | < 50% | < 50% | inhibition [21]: < 50%; inhibition [22]: < 50%; pIC50 [23]: 5.70; inhibition [24]: < 50%; inhibition [25]: < 50% | COC(Cn1c(SC2CCC(C(=O)O)CC2O)nc(-c2ccc(F)cc2)c1-c1ccnc(NC(C)=O)c1)OC (stereo not given)
